How the values were obtained:
Rattus norvegicus [1] = experiment: Compound was evaluated for analgesic activity by rat tail-flick assay following peroral administration; conditions: po
Rattus norvegicus [2] = experiment: Compound was evaluated for analgesic activity by rat tail-flick assay following subcutaneous administration; conditions: sc
[3] = molecular target: Sigma non-opioid intracellular receptor 1 (Homo sapiens, UniProt Q99720)
Sigma non-opioid intracellular receptor 1, sequence (Q99720 whole entry): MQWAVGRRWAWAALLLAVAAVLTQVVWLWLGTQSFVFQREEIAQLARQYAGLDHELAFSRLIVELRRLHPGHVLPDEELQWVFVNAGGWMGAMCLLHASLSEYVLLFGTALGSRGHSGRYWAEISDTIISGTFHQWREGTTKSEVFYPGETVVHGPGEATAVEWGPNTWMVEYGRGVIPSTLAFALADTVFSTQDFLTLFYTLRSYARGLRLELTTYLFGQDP
Description: Compound was evaluated for the binding affinity to sigma opioid receptor

| Structure (SMILES) | ED50 (Rattus norvegicus [1]) [mg/kg] | ED50 (Rattus norvegicus [2]) [mg/kg] | Ki [3] [µM] |
| --- | --- | --- | --- |
| CN1CC[C@]23c4c5ccc(O)c4O[C@H]2[C@@H](O)C=C[C@H]3[C@H]1C5 [MORPHINE] | 54 | 4.9 | – |
| COc1cccc2c1CC[C@H](N1CCCC1)[C@H]2N(C)C(=O)Cc1ccc(Cl)c(Cl)c1 | – | – | 5.16 |

— ChEMBL document CHEMBL1126435, “DuP 747: a new, potent, kappa opioid analgesic. Synthesis and pharmacology1” (Bioorg Med Chem Lett, 1992)
